Experiment: Acid-catalyzed hydrolysis of enol ethers in THF/1 M HCl
Format: physicochemical
Conditions: THF/1M HCl (80:20 v/v), room temperature; for Hydrolysis of enol ethers, percent remaining, initial: initial (time zero)
Method: The acid-catalyzed hydrolysis of Compounds 1, 2, 3 and 25 were measured and compared to the hydrolysis of enol ethers report in WO2019243501. Each enol ether was dissolved in a 4:1 THF/1 M HCl mixture and the percent remaining over time measured relative to an internal standard.
Into a 15 mL vial were added 125 mg of enol ether, 60 mg of hexadecane and 10 mL of THE (purged with N2 and containing 2500 ppm of BHT). After mixing, 2 mL of this solution were removed with a volumetric pipet and used to obtain the time zero measurement. 2 mL of 1 M HCl were mixed with the remaining 8 mL of the THF solution. This mixture was divided into 5 mL vials (1 mL per vial). The vials were gently topped with nitrogen and fitted with screw caps around which parafilm was wrapped. The vials were stored at room temperature until analyzed. For analyses, 2 mL of ethyl acetate was added to a vial and mixed. After phase separation, the top phase was collected and washed with saturated sodium carbonate (1 mL). Samples of the organic phase were analyzed by GC-FID. For the time zero sample, 0.5 mL of deionized water was added to the 2 mL taken from the original THE solution. 1 mL of this solution was added to a 5 mL vial and diluted with 2 mL of ethyl acetate and mixed. The top phase was collected and washed with saturated sodium carbonate (1 mL). The top phase then was analyzed by GC-FID. The percent of enol ether remaining was determined by dividing the peak area ratio of the enol ether to internal standard by the ratio measured at time zero.

| Compound | Hydrolysis of enol ethers, percent remaining, 1 d [%] | Hydrolysis of enol ethers, percent remaining, 2 d [%] | Hydrolysis of enol ethers, percent remaining, 3 d [%] | Hydrolysis of enol ethers, percent remaining, 7 d [%] | Hydrolysis of enol ethers, percent remaining, initial [%] | Hydrolysis of enol ethers, percent remaining, 5 h [%] |
| --- | --- | --- | --- | --- | --- | --- |
| CCCCCC(CC)OC=Cc1ccccc1 (stereo not shown) [(2-(octan-3-yloxy)vinyl)benzene, reference compound] | 84.9 | 72.0 | 61.7 | 33.6 | 100 | – |
| CCCCCCCCCC(C)C=COC(CC)CCCCC (stereo not shown) [Compound 29, 3-methyl-1-(octan-3-yloxy)dodec-1-ene] | – | – | – | – | 100 | 3.7 |
| CC/C=C\CCOC=Cc1ccc(OC)cc1 [1-(2-(((Z)-hex-3-en-1-yl)oxy)vinyl)-4-methoxybenzene, reference compound] | 89.1 | 80.2 | 72.4 | 52.5 | 100 | – |
| C=CCCCCCCCC=COCCc1ccccc1 [Compound 3, (2-(undeca-1,10-dien-1-yloxy)ethyl)benzene] | 0 | 0 | 0 | 0 | 100 | 19.9 |
| CC/C=C\CCOC=CC(C)CCCCCCCCC (stereo not shown) [Compound 27, 1-(((Z)-hex-3-en-1-yl)oxy)-3-methyldodec-1-ene] | – | – | – | – | 100 | 29.8 |
| CC/C=C\CCOC=Cc1ccccc1 [(2-(((Z)-hex-3-en-1-yl)oxy)vinyl)benzene, reference compound] | – | – | 79.5 | 57.3 | 100 | – |
| C(=Cc1ccccc1)OCCc1ccccc1 [(2-phenethoxyvinyl)benzene, reference compound] | 95 | 90 | 83.7 | 66.4 | 100 | – |

Now from value to molecule:

| Hydrolysis of enol ethers, percent remaining, 1 d [%] | Hydrolysis of enol ethers, percent remaining, 2 d [%] | Hydrolysis of enol ethers, percent remaining, 3 d [%] | Hydrolysis of enol ethers, percent remaining, 7 d [%] | Hydrolysis of enol ethers, percent remaining, initial [%] | Hydrolysis of enol ethers, percent remaining, 5 h [%] | Compound |
| --- | --- | --- | --- | --- | --- | --- |
| 0 | 0 | 0 | 0 | 100 | 12.8 | CCCCCCCCCCC=COCCc1ccccc1 [Compound 1, (2-(dodec-1-en-1-yloxy)ethyl)benzene] |
| 4.6 | 0 | 0 | 0 | 100 | 35.6 | CCCCCCCCCC(C)C=COCCc1ccccc1 (stereo not shown) [Compound 25, (2-((3-methyldodec-1-en-1-yl)oxy)ethyl)benzene] |
| 0 | 0 | 0 | 0 | 100 | 16.3 | CCCCCCCCCCCC=COCCc1ccccc1 [Compound 2, (2-(tridec-1-en-1-yloxy)ethyl)benzene] |

Reference: US20250049660A1, “ENOL ETHER PROPERFUME” (FIRMENICH SA, priority 2021, published 2025)
